ChEMBL document CHEMBL5241112, “Insights into the recent progress in the medicinal chemistry of pyranopyrimidine analogs” (RSC Med Chem, 2022)
≈ marks a conversion by molar mass, not a printed value.

Experiments:
Micrococcus luteus = assay: Antibacterial activity against Micrococcus luteus MTCC 2470 assessed as bacterial growth inhibition; type: functional
Bacillus subtilis [1] = assay: Antibacterial activity against Bacillus subtilis MTCC 121 assessed as bacterial growth inhibition; type: functional
Staphylococcus aureus [2] = assay: Antibacterial activity against Staphylococcus aureus MLS-16 MTCC 2940 assessed as bacterial growth inhibition; type: functional
Escherichia coli [3] = assay: Antibacterial activity against Escherichia coli MTCC 739 assessed as bacterial growth inhibition; type: functional
Raoultella planticola = assay: Antibacterial activity against Raoultella planticola MTCC 530 assessed as bacterial growth inhibition; type: functional; details: Klebsiella planticola
Pseudomonas aeruginosa [4] = assay: Antibacterial activity against Pseudomonas aeruginosa MTCC 2453 assessed as bacterial growth inhibition; type: functional
Staphylococcus aureus [5] = assay: Antibacterial activity against Staphylococcus aureus MLS-16 MTCC 2940 assessed as minimum bactericidal concentration; type: functional
Staphylococcus aureus [6] = assay: Antibacterial activity against Staphylococcus aureus MTCC 96 assessed as minimum bactericidal concentration; type: functional
Bacillus subtilis [7] = assay: Antibacterial activity against Bacillus subtilis MTCC 121 assessed as minimum bactericidal concentration; type: functional
Alpha-glucosidase = Alpha-glucosidase (Saccharomyces cerevisiae S288c, UniProt P53341+P38158+P07265); assay: Inhibition of Saccharomyces cerevisiae alpha-glucosidase assessed as decrease in release of p-nitrophenol using pNPG as substrate incubated for 10 mins by spectroscopic analysis; type: protein assay
[8] = molecular target: Alpha-glucosidase (Mus musculus); assay: Inhibition of mouse alpha-glucosidase assessed as decrease in release of p-nitrophenol using pNPG as substrate preincubated for 10 mins followed by substrate addition and measured after 30 mins by spectroscopic analysis
Clostridium tetani = assay: Antibacterial activity against Clostridium tetani MTCC 449 assessed as bacterial growth inhibition by broth microdilution method; type: functional
Vibrio cholerae = assay: Antibacterial activity against Vibrio cholerae MTCC 3906 assessed as bacterial growth inhibition by broth microdilution method; type: functional
Aspergillus fumigatus = assay: Antifungal activity against Aspergillus fumigatus MTCC 227 assessed as fungal growth inhibition by broth microdilution method; type: functional
[9] = test system: Mycobacterium tuberculosis; assay: Antitubercular activity against Mycobacterium tuberculosis H37Rv assessed as bacterial growth inhibition at 250 ug/ml; type: functional
[10] = test system: Mycobacterium tuberculosis; assay: Antitubercular activity against Mycobacterium tuberculosis H37Rv assessed as bacterial growth inhibition at 100 ug/ml; type: functional
Plasmodium falciparum = assay: microbe, parasite or virus in culture
Aspergillus niger [11] = assay: Antifungal activity against Aspergillus niger ATCC 6275 assessed as diameter of inhibition zone incubated for 7 days by disc diffusion assay; type: functional; details: time 7 day
Aspergillus niger [12] = assay: Antifungal activity against Aspergillus niger ATCC 6275 assessed as inhibition of […] growth incubated for 7 days by broth macrodilution method; type: functional; details: ATCC 6275, 168 h, time 7 day
Escherichia coli [13] = assay: Antibacterial activity against Escherichia coli ATCC 25922 assessed as diameter of inhibition zone incubated for 24 hrs by disc diffusion assay; type: functional
Pseudomonas aeruginosa [14] = assay: Antibacterial activity against Pseudomonas aeruginosa ATCC 27853 assessed as diameter of inhibition zone incubated for 24 hrs by disc diffusion assay; type: functional
Escherichia coli [15] = assay: Antibacterial activity against Escherichia coli ATCC 25922 assessed as inhibition of bacterial growth incubated for 24 hrs by broth macrodilution method; type: functional
Pseudomonas aeruginosa [16] = assay: Antibacterial activity against Pseudomonas aeruginosa ATCC 27853 assessed as inhibition of bacterial growth incubated for 24 hrs by broth macrodilution method; type: functional
HepG2 = assay: Anticancer activity against human HepG2 cells assessed as reduction in cell viability; type: functional, cell-based
MCF7 = assay: Anticancer activity against human MCF7 cells assessed as reduction in cell viability; type: functional, cell-based
HCT-116 = assay: cells; details: Homo sapiens
[17] = test system: Human immunodeficiency virus 1; assay: Antiviral activity against HIV1 IIIB infected in human MT4 cells assessed as reduction in virus-induced cytopathic effect by MTT assay; type: functional, organism-based; details: Human immunodeficiency virus 1, IIIB
[18] = test system: Human immunodeficiency virus 2; assay: Antiviral activity against HIV2 ROD infected in human MT4 cells assessed as reduction in virus-induced cytopathic effect by MTT assay; type: functional, organism-based; details: Human immunodeficiency virus 2, ROD
[19] = Cytotoxicity against human MT4 cells assessed as reduction in cell viability by MTT assay; type: toxicity, cell-based
[20] = Selectivity index, ratio of CC50 for cytotoxicity against human MT4 cells to EC50 for antiviral activity against HIV1 IIIB infected in human MT4 cells; type: toxicity, cell-based; details: read-out: Selectivity Index
[21] = Selectivity index, ratio of CC50 for cytotoxicity against human MT4 cells to EC50 for antiviral activity against HIV2 ROD infected in human MT4 cells; type: toxicity, cell-based; details: read-out: Selectivity Index
Bacillus pumilus [22] = assay: Antibacterial activity against Bacillus pumilus assessed as inhibition of bacterial growth by microdilution method; type: functional
Enterococcus faecalis [23] = assay: Antibacterial activity against […] assessed as inhibition of bacterial growth by microdilution method; type: functional
Escherichia coli [24] = assay: Antibacterial activity against Escherichia coli assessed as inhibition of bacterial growth by microdilution method; type: functional
Enterobacter cloacae [25] = assay: Antibacterial activity against Enterobacter cloacae assessed as inhibition of bacterial growth by microdilution method; type: functional
Aspergillus niger [26] = assay: Antifungal activity against Aspergillus niger assessed as inhibition of fungal growth by microdilution method; type: functional
Candida albicans [27] = assay: Antifungal activity against Candida albicans assessed as inhibition of fungal growth by microdilution method; type: functional
Bacillus pumilus [28] = assay: Antibacterial activity against Bacillus pumilus assessed as inhibition of bacterial growth at MIC by microdilution method; type: functional
Enterococcus faecalis [29] = assay: Antibacterial activity against […] assessed as inhibition of bacterial growth at MIC by microdilution method; type: functional
Enterobacter cloacae [30] = assay: Antibacterial activity against Enterobacter cloacae assessed as inhibition of bacterial growth at MIC by microdilution method; type: functional
Aspergillus niger [31] = assay: Antifungal activity against Aspergillus niger assessed as inhibition of fungal growth at MIC by microdilution method; type: functional
Candida albicans [32] = assay: Antifungal activity against Candida albicans assessed as inhibition of fungal growth at MIC by microdilution method; type: functional
Bacillus pumilus [33] = assay: Antibacterial activity against Bacillus pumilus assessed as minimum bactericidal concentration by microdilution method; type: functional
Enterococcus faecalis [34] = assay: Antibacterial activity against […] assessed as minimum bactericidal concentration by microdilution method; type: functional
Enterobacter cloacae [35] = assay: Antibacterial activity against Enterobacter cloacae assessed as minimum bactericidal concentration by microdilution method; type: functional
Aspergillus niger [36] = assay: […] activity against Aspergillus niger assessed as […] by microdilution method; type: functional
Candida albicans [37] = assay: […] activity against Candida albicans assessed as […] by microdilution method; type: functional
Bacillus subtilis [38] = assay: Antibacterial activity against Bacillus subtilis ATCC 6633 assessed as diameter of inhibition zone incubated for 24 hrs by disc diffusion assay; type: functional
Bacillus subtilis [39] = assay: Antibacterial activity against Bacillus subtilis ATCC 6633 assessed as inhibition of bacterial growth incubated for 24 hrs by broth macrodilution method; type: functional
Serratia marcescens [40] = assay: Antibacterial activity against Serratia marcescens assessed as diameter of inhibition zone by disc diffusion method; type: functional
Staphylococcus aureus [41] = assay: Antibacterial activity against Staphylococcus aureus assessed as inhibition of bacterial growth; type: functional
Salmonella typhimurium = assay: Antibacterial activity against Salmonella typhimurium MTCC 98 assessed as bacterial growth inhibition by broth microdilution method; type: functional, Salmonella enterica subsp. enterica serovar Typhimurium; details: Salmonella enterica
Staphylococcus aureus [42] = assay: Antibacterial activity against Staphylococcus aureus NCTC-7447 assessed as diameter of inhibition zone incubated for 24 hrs by disc diffusion method; type: functional
Bacillus cereus = assay: Antibacterial activity against Bacillus cereus ATCC-14579 assessed as diameter of inhibition zone incubated for 24 hrs by disc diffusion method; type: functional
Serratia marcescens [43] = assay: Antibacterial activity against Serratia marcescens IMRU-70 assessed as diameter of inhibition zone incubated for 24 hrs by disc diffusion method; type: functional
Proteus mirabilis = assay: Antibacterial activity against Proteus mirabilis NTCC-289 assessed as diameter of inhibition zone incubated for 24 hrs by disc diffusion method; type: functional

Cc1ccc(C2c3c(Nc4ccc([N+](=O)[O-])cc4)ncnc3Oc3c2c(=O)oc2ccccc32)cc1 (stereo unspecified)
MIC (Micrococcus luteus): 15.6 µg/mL (≈ 32.6 µM)
MIC (Bacillus subtilis [1]): 15.6 µg/mL (≈ 32.6 µM)
MIC (Staphylococcus aureus [2]): 15.6 µg/mL (≈ 32.6 µM)
MIC (Escherichia coli [3]): 15.6 µg/mL (≈ 32.6 µM)
MIC (Raoultella planticola): 15.6 µg/mL (≈ 32.6 µM)
MIC (Pseudomonas aeruginosa [4]): 15.6 µg/mL (≈ 32.6 µM)
MBC (Staphylococcus aureus [5]): 15.6 µg/mL (≈ 32.6 µM)
MBC (Staphylococcus aureus [6]): 15.6 µg/mL (≈ 32.6 µM)
MBC (Bacillus subtilis [7]): 15.6 µg/mL (≈ 32.6 µM)

COc1cc(/C=C/C(=O)C2=C(/C=C/c3ccc(O)c(OC)c3)Oc3[nH]c(=O)[nH]c(=O)c3C2c2ccc([N+](=O)[O-])cc2)ccc1O (stereo unspecified)
IC50 (Alpha-glucosidase): 12410 nM
IC50 [8]: 106800 nM

Cc1nn(-c2ccccc2)c(-n2ccnc2)c1C1C(C#N)=C(N)Oc2[nH]c(=O)[nH]c(=O)c21 (stereo unspecified)
MIC (Clostridium tetani): 100 µg/mL (≈ 233 µM)
MIC (Vibrio cholerae): 662 µg/mL (≈ 1550 µM)
MIC (Aspergillus fumigatus): 200 µg/mL (≈ 467 µM)
inhibition at 250 µg/mL [9]: 95%
inhibition at 100 µg/mL [10]: 92%
IC50 (Plasmodium falciparum): 0.97 µg/mL (≈ 2.26 µM)

C[C@@H]1[C@H](O)[C@@H](C)/C=C/C=C/C=C/C=C/C=C/C=C/C=C/[C@H](O[C@@H]2O[C@H](C)[C@@H](O)[C@H](N)[C@@H]2O)C[C@@H]2O[C@](O)(C[C@@H](O)C[C@@H](O)[C@H](O)CC[C@@H](O)C[C@@H](O)CC(=O)O[C@H]1C)C[C@H](O)[C@H]2C(=O)O [AMPHOTERICIN B]
diameter of the inhibition zone (DIZ) (Aspergillus niger [11]): 26.3 mm
MIC (Aspergillus niger [12]): 0.781 µg/mL (≈ 0.845 µM)

COc1ccc(C2c3c([nH]c(=O)[nH]c3=O)Oc3ncn(-c4cc(C)ccn4)c(=N)c32)cc1 (stereo unspecified)
diameter of the inhibition zone (DIZ) (Escherichia coli [13]): 18.1 mm
diameter of the inhibition zone (DIZ) (Pseudomonas aeruginosa [14]): 17.3 mm
diameter of the inhibition zone (DIZ) (Aspergillus niger [11]): 17.2 mm
MIC (Escherichia coli [15]): 0.781 µg/mL (≈ 1.81 µM)
MIC (Pseudomonas aeruginosa [16]): 3.12 µg/mL (≈ 7.26 µM)
MIC (Aspergillus niger [12]): 15.4 µg/mL (≈ 35.7 µM)
IC50 (HepG2): 2090 nM
IC50 (MCF7): 2430 nM
IC50 (HCT-116): 2610 nM

Cc1nc2c(c(=O)[nH]1)C(c1cccc3ccccc13)c1c(c3ccccc3oc1=O)O2 (stereo unspecified)
EC50 [17]: 3.63 µg/mL (≈ 8.89 µM)
EC50 [18]: 3.63 µg/mL (≈ 8.89 µM)
CC50 [19]: 3.63 µg/mL (≈ 8.89 µM)
selectivity ratio [20]: < 1
selectivity ratio [21]: < 1

COc1cc(/C=C/C(=O)C2=C(/C=C/c3ccc(O)c(OC)c3)Oc3[nH]c(=O)[nH]c(=O)c3C2c2c(Cl)cccc2Cl)ccc1O (stereo unspecified)
IC50 (Alpha-glucosidase): 27600 nM
IC50 [8]: 46040 nM

CCOC(=O)C1=C(N)OC2C(C(=O)N(c3ccc(C)cc3)C(=S)N2c2ccc(C)cc2)C1c1ccccc1 (stereo unspecified)
MIC (Bacillus pumilus [22]): 31.2 µg/mL (≈ 59.1 µM)
MIC (Enterococcus faecalis [23]): 15.6 µg/mL (≈ 29.6 µM)
MIC (Escherichia coli [24]): 15.6 µg/mL (≈ 29.6 µM)
MIC (Enterobacter cloacae [25]): 62.5 µg/mL (≈ 118 µM)
MIC (Aspergillus niger [26]): 15.6 µg/mL
MIC (Candida albicans [27]): 31.2 µg/mL
inhibition (INH) (Bacillus pumilus [28]): 66.4%
inhibition (INH) (Enterococcus faecalis [29]): 69.5%
inhibition (INH) (Enterobacter cloacae [30]): 29.2%
inhibition (INH) (Aspergillus niger [31]): 85.1%
inhibition (INH) (Candida albicans [32]): 79.7%
MBC (Bacillus pumilus [33]): 125 µg/mL (≈ 237 µM)
MBC (Enterococcus faecalis [34]): 62.5 µg/mL (≈ 118 µM)
MBC (Enterobacter cloacae [35]): 62.5 µg/mL (≈ 118 µM)
MBC (Aspergillus niger [36]): 500 µg/mL (≈ 948 µM)
MBC (Candida albicans [37]): 62.5 µg/mL (≈ 118 µM)

CC1(C)S[C@@H]2[C@H](NC(=O)[C@H](N)c3ccccc3)C(=O)N2[C@H]1C(=O)O [AMPICILLIN]
diameter of the inhibition zone (DIZ) (Bacillus subtilis [38]): 32.4 mm
MIC (Bacillus subtilis [39]): 0.45 µg/mL (≈ 1.29 µM)
diameter of the inhibition zone (DIZ) (Serratia marcescens [40]): 25 mm
MIC (Staphylococcus aureus [41]): 250 µg/mL (≈ 715 µM)
MIC (Salmonella typhimurium): 100 µg/mL (≈ 286 µM)
MIC (Vibrio cholerae): 100 µg/mL (≈ 286 µM)
diameter of the inhibition zone (DIZ) (Staphylococcus aureus [42]): 25 mm
diameter of the inhibition zone (DIZ) (Bacillus cereus): 25 mm
diameter of the inhibition zone (DIZ) (Serratia marcescens [43]): 25 mm
diameter of the inhibition zone (DIZ) (Proteus mirabilis): 25 mm
